Results reported in PMC6946680, “Modulation of brain cation-Cl^− cotransport via the SPAK kinase inhibitor ZT-1a” (Nature Communications, 2020).

Tests used:
Assay in all cases: Kinase profiling panel
Assay type in all cases: biochemical
[1] = test system: Aurora B
Method: (§1) Supplementary Table 2. ZT-1a kinase profiling data6.
(§2) ZT-1a was tested at 10 and 1 µM against a panel of 140 recombinant kinases in an enzymatic
(§3) activity-based assay performed by the International Centre for Kinase Profiling in the MRC
(§4) Protein Phosphorylation and Ubiquitylation Unit. Values represent % residual kinase activity

[2] = test system: BRK
Method: as §1, §2, §3, §4

[3] = test system: CHK2
Method: as §1, §2, §3, §4

[4] = test system: CK2
Method: as §1, §2, §3, §4

[5] = test system: DAPK1
Method: as §1, §2, §3, §4

[6] = test system: DYRK2
Method: as §1, §2, §3, §4

[7] = test system: ERK1
Method: as §1, §2, §3, §4

[8] = test system: HER4
Method: as §1, §2, §3, §4

[9] = test system: HIPK1
Method: as §1, §2, §3, §4

[10] = test system: IKKb
Method: as §1, §2, §3, §4

[11] = test system: JNK3
Method: as §1, §2, §3, §4

[12] = test system: Lck
Method: as §1, §2, §3, §4

[13] = test system: MAPKAP-K3
Method: as §1, §2, §3, §4

[14] = test system: MARK1
Method: as §1, §2, §3, §4

[15] = test system: MARK2
Method: as §1, §2, §3, §4

[16] = test system: MARK3
Method: as §1, §2, §3, §4

[17] = test system: MARK4
Method: as §1, §2, §3, §4

[18] = test system: MKK1
Method: as §1, §2, §3, §4

[19] = test system: MKK6
Method: as §1, §2, §3, §4

[20] = test system: MLK3
Method: as §1, §2, §3, §4

[21] = test system: MNK2
Method: as §1, §2, §3, §4

[22] = test system: MPSK1
Method: as §1, §2, §3, §4

[23] = test system: MSK1
Method: as §1, §2, §3, §4

[24] = test system: OSR1
Method: as §1, §2, §3, §4

[25] = test system: PDGFRA
Method: as §1, §2, §3, §4

[26] = test system: PHK
Method: as §1, §2, §3, §4

[27] = test system: PIM3
Method: as §1, §2, §3, §4

[28] = test system: PINK
Method: as §1, §2, §3, §4

[29] = test system: PKBa
Method: as §1, §2, §3, §4

[30] = test system: PKBb
Method: as §1, §2, §3, §4

[31] = test system: PKCz
Method: as §1, §2, §3, §4

[32] = test system: SIK3
Method: as §1, §2, §3, §4

[33] = test system: SmMLCK
Method: as §1, §2, §3, §4

[34] = test system: TAK1
Method: as §1, §2, §3, §4

[35] = test system: TAO1
Method: as §1, §2, §3, §4

[36] = test system: TESK1
Method: as §1, §2, §3, §4

[37] = test system: TIE2
Method: as §1, §2, §3, §4

[38] = test system: TrkA
Method: as §1, §2, §3, §4

[39] = test system: ULK2
Method: as §1, §2, §3, §4

[40] = test system: WNK1
Method: as §1, §2, §3, §4

[41] = test system: ZAP70
Method: as §1, §2, §3, §4

[42] = test system: p38a MAPK
Method: as §1, §2, §3, §4

[43] = test system: p38b MAPK
Method: as §1, §2, §3, §4

[44] = test system: p38d MAPK
Method: as §1, §2, §3, §4

Cc1cc(C(C#N)c2ccc(Cl)cc2)c(Cl)cc1NC(=O)c1cc(Cl)ccc1O (stereo not shown) [ZT-1a, 5-chloro-N-(5-chloro-4-((4-chlorophenyl)(cyano)methyl)-2-methylphenyl)-2-hydroxybenzamide]
% residual kinase activity ([1]; 1 µM): 119±6% | % residual kinase activity ([1]; 10 µM): 92±15% | % residual kinase activity ([2]; 1 µM): 116±12% | % residual kinase activity ([2]; 10 µM): 103±2% | % residual kinase activity ([3]; 1 µM): 106±1% | % residual kinase activity ([3]; 10 µM): 68±6% | % residual kinase activity ([4]; 1 µM): 72±15% | % residual kinase activity ([4]; 10 µM): 59±16% | % residual kinase activity ([5]; 1 µM): 131±8% | % residual kinase activity ([5]; 10 µM): 159±11% | % residual kinase activity ([6]; 1 µM): 111±15% | % residual kinase activity ([6]; 10 µM): 97±10% | % residual kinase activity ([7]; 1 µM): 107±16% | % residual kinase activity ([7]; 10 µM): 109±18% | % residual kinase activity ([8]; 1 µM): 85±8% | % residual kinase activity ([8]; 10 µM): 84±1% | % residual kinase activity ([9]; 1 µM): 98±13% | % residual kinase activity ([9]; 10 µM): 90±4% | % residual kinase activity ([10]; 1 µM): 101±0% | % residual kinase activity ([10]; 10 µM): 78±3% | % residual kinase activity ([11]; 1 µM): 63±15% | % residual kinase activity ([11]; 10 µM): 60±10% | % residual kinase activity ([12]; 1 µM): 112±13% | % residual kinase activity ([12]; 10 µM): 127±14% | % residual kinase activity ([13]; 1 µM): 96±26% | % residual kinase activity ([13]; 10 µM): 72±8% | % residual kinase activity ([14]; 1 µM): 104±16% | % residual kinase activity ([14]; 10 µM): 91±5% | % residual kinase activity ([15]; 1 µM): 103±8% | % residual kinase activity ([15]; 10 µM): 89±15% | % residual kinase activity ([16]; 1 µM): 71±6% | % residual kinase activity ([16]; 10 µM): 68±8% | % residual kinase activity ([17]; 1 µM): 68±8% | % residual kinase activity ([17]; 10 µM): 59±9% | % residual kinase activity ([18]; 1 µM): 106±2% | % residual kinase activity ([18]; 10 µM): 114±17% | % residual kinase activity ([19]; 1 µM): 102±12% | % residual kinase activity ([19]; 10 µM): 82±16% | % residual kinase activity ([20]; 1 µM): 119±11% | % residual kinase activity ([20]; 10 µM): 114±3% | % residual kinase activity ([21]; 1 µM): 100±7% | % residual kinase activity ([21]; 10 µM): 105±3% | % residual kinase activity ([22]; 1 µM): 110±6% | % residual kinase activity ([22]; 10 µM): 105±2% | % residual kinase activity ([23]; 1 µM): 114±6% | % residual kinase activity ([23]; 10 µM): 112±14% | % residual kinase activity ([24]; 1 µM): 106±9% | % residual kinase activity ([24]; 10 µM): 98±3% | % residual kinase activity ([25]; 1 µM): 84±11% | % residual kinase activity ([25]; 10 µM): 80±7% | % residual kinase activity ([26]; 1 µM): 97±3% | % residual kinase activity ([26]; 10 µM): 107±2% | % residual kinase activity ([27]; 1 µM): 115±12% | % residual kinase activity ([27]; 10 µM): 99±2% | % residual kinase activity ([28]; 1 µM): 101±13% | % residual kinase activity ([28]; 10 µM): 59±4% | % residual kinase activity ([29]; 1 µM): 104±1% | % residual kinase activity ([29]; 10 µM): 91±4% | % residual kinase activity ([30]; 1 µM): 76±14% | % residual kinase activity ([30]; 10 µM): 51±13% | % residual kinase activity ([31]; 1 µM): 80±11% | % residual kinase activity ([31]; 10 µM): 122±28% | % residual kinase activity ([32]; 1 µM): 104±9% | % residual kinase activity ([32]; 10 µM): 88±0% | % residual kinase activity ([33]; 1 µM): 99±3% | % residual kinase activity ([33]; 10 µM): 98±9% | % residual kinase activity ([34]; 1 µM): 117±22% | % residual kinase activity ([34]; 10 µM): 103±5% | % residual kinase activity ([35]; 1 µM): 66±2% | % residual kinase activity ([35]; 10 µM): 104±2% | % residual kinase activity ([36]; 1 µM): 109±3% | % residual kinase activity ([36]; 10 µM): 77±10% | % residual kinase activity ([37]; 1 µM): 139±74% | % residual kinase activity ([37]; 10 µM): 73±11% | % residual kinase activity ([38]; 1 µM): 108±9% | % residual kinase activity ([38]; 10 µM): 91±7% | % residual kinase activity ([39]; 1 µM): 110±11% | % residual kinase activity ([39]; 10 µM): 49±9% | % residual kinase activity ([40]; 1 µM): 125±17% | % residual kinase activity ([40]; 10 µM): 122±35% | % residual kinase activity ([41]; 1 µM): 120±1% | % residual kinase activity ([41]; 10 µM): 97±9% | % residual kinase activity ([42]; 1 µM): 128±7% | % residual kinase activity ([42]; 10 µM): 113±2% | % residual kinase activity ([43]; 1 µM): 124±1% | % residual kinase activity ([43]; 10 µM): 124±0% | % residual kinase activity ([44]; 1 µM): 95±1% | % residual kinase activity ([44]; 10 µM): 112±2%
